# Source: patent US8557737B2, “Methods of altering poppy characteristics” (priority 2005, dated 2013)
# Tests used:
# Type in all cases: in vivo, Papaver somniferum
# [1] = test system: poppy crops; assay: Example 17: field trial, triasulfuron, mesosulfuron-methyl and metsulfuron-methyl at early run-up and mid-late run-up, morphine crop; settings: Trt 2: COMPOUND 1 120 MG/HA + PULSE .2% V/V at ERU and M-LRU
# Description: (§1) All trials were conducted on poppy crops. Seed was treated with Thiram (5.6 g of Thiram 800/kg seed) and Apron (4 g/kg) and sown at a rate of approximately 750 g/ha. Fertilisers were applied at sowing. Most commonly, either 50:50 lime:superphosphate/triple superphosphate at 125 kg/ha, or lime:superphosphate at 250 kg/ha, were mixed with seed and drilled at a depth of 15 mm. In the same operation, NPK (nitrogen:phosphorus:potassium), at various rates, was banded 75 mm below the seed, unless otherwise stated. All crops were subjected to herbicide sprays for weed control, fungicide sprays for disease control, insecticide sprays if appropriate and were irrigated as required.
# (§2) All spray applications were made with a precision sprayer, using Silvan Lurmark flat-fan, low-drift nozzles (LD110-0015). Spray equipment was calibrated to deliver 153 L water/ha.
# (§3) At harvest, a 2 m×4 m quadrat was placed in each plot (3 m×6 m, unless otherwise stated) and capsules hand-picked from this area. Capsules were broken up, seed and capsule material separated and weighed. Capsule moisture readings were taken with a moisture meter. Alkaloid yield data were calculated on Pesticide Research Manager (version 5 for Windows) using the formulae below. Briefly, capsule weight was adjusted for moisture to a dry weight, 5% of seed weight was added to this (this amount of capsule material regularly occurs in seed samples after processing) to give a capsule weight per plot. Seed weight was adjusted to 95% of crude weight. Straw weights were determined by multiplying dry capsule weight by 1.3 (estimated amount of stem material in a commercial harvest) and adjusted to 11% moisture. When Lontrel was applied to crops exact capsule and seed weight data were entered. Analyses of variance and a Multiple Range Test were performed on data using Pesticide Research Manager.
# Trial to evaluate applications of triasulfuron, mesosulfuron-methyl and metsulfuron-methyl, in a morphine crop. Treatment sprays were applied to with crop at early run-up and mid-late run-up, respectively. Plant heights were measured on 6 weeks after last application and lodging was assessed at capsule harvest.
# [2] = test system: poppy crops; assay: Example 4: field trial, metsulfuron-methyl alone or tank-mixed with Sunny at early run-up, morphine crop; settings: COMPOUND 1 120 MG/HA + PULSE .2 % v/v at ERU
# Description: as §1, §2
# as §3, with “Manager. Significant differences (P=0.05) between treatments are denoted by different lower case letters adjacent to treatment means in the tables of results.” for “Manager.”
# Trial to evaluate metsulfuron-methyl (Compound 1) (120 mg/ha) alone, or tank-mixed with Sunny (1 L/ha), in a morphine crop. Treatments were applied to crop at early run-up, plant heights were measured at early green capsule stage.
# [3] = test system: poppy crops; assay: Example 11: field trial, metsulfuron-methyl, Sunny and metsulfuron-methyl+Sunny at row cover, early run-up, bud-emergence/early hook, morphine crop; settings: Trt 4: COMPOUND 1 120 MG/HA + PULSE .2% V/V at RC, ERU and BE/EH
# Description: as §1, §2
# as §3, with “Manager. Significant differences (P=0.05) between treatments are denoted by different lower case letters adjacent to treatment means in the tables of results.” for “Manager.”
# Trial to evaluate applications of metsulfuron-methyl (Compound 1), Sunny and metsulfuron-methyl+Sunny, in a morphine crop. Treatment sprays were applied to crop at row cover, early run-up and bud-emergence/early hook. Plant heights were measured at green capsule stage.
# [4] = test system: poppy crops; assay: Example 19: field trial, sulfosulfuron, thifensulfuron-methyl and metsulfuron-methyl, morphine crop; settings: 120 MG/HA + PULSE .2 % V/V, applied at M-LRU and LRU-BE
# Description: as §1, §2, §3
# Trial to evaluate applications of sulfosulfuron, thifensulfuron-methyl and metsulfuron-methyl, in a morphine crop. Treatment sprays were applied to crop at mid-late run-up and late-run-up/bud-emergence, respectively. Plant heights were measured some 10 weeks after the last application. Lodging was assessed at capsule harvest.
# [5] = test system: poppy crops; assay: Example 9: field trial, mesosulfuron-methyl and metsulfuron-methyl, morphine crop; settings: COMPOUND 1 120 MG/HA + PULSE .2 % V/V at GC, LRU and EBE
# Description: as §1, §2, §3
# Trial to evaluate applications of mesosulfuron-methyl (Compound 2) and metsulfuron-methyl (Compound 1), in a morphine crop. Treatment sprays were applied to crop at ground cover, late run-up and early bud-emergence, respectively. Plant heights were measured at green capsule stage, and lodging assessed on the day of capsule harvest.
# [6] = test system: poppy crops; assay: Example 16: field trial, metsulfuron-methyl, mesosulfuron-methyl and triasulfuron at row cover and ground cover/early run-up, morphine crop; settings: Trt 2: COMPOUND 1 120 MG/HA + PULSE .2% V/V at RC and GC/ERU
# Description: as §1, §2, §3
# Trial to evaluate applications of metsulfuron-methyl (Compound 1), mesosulfuron-methyl (Compound 2) and triasulfuron (Compound 3), in a morphine crop. Treatment sprays were applied to crop at row cover and ground cover/early run-up, respectively. Plant heights were assessed 5 weeks after last application and lodging was assessed at capsule harvest.
smiles,measurement,setting,value
"COC(=O)c1ccccc1S(=O)(=O)NC(=O)Nc1nc(C)nc(OC)n1 [Compound 1, metsulfuron-methyl]",CAPS/SEED RATIO,[1],8.976 a
same,CROP WEIGHT,[1],2.60 b t/ha
same,MORPHINE,[1],49.48 a kg/ha
same,SEED,[1],187 c kg/ha
same,STRAW,[1],2343 a kg/ha
same,STRAW MORPHINE,[1],2.11 c %
same,PLANT HEIGHT,[1]; 6 weeks after last application,97.0 c cm
same,LODGING,[1]; at capsule harvest,2.7 b %
same,CAPSULE/SEED RATIO,[2],0.978 a
same,CROP WEIGHT,[2],2.30 b t/ha
same,MORPHINE,[2],31.32 a kg/ha
same,SEED,[2],955 c kg/ha
same,STRAW,[2],1349 a kg/ha
same,STRAW MORPHINE,[2],2.32 a %
same,PLANT HEIGHT,[2]; measured at early green capsule stage,82.6 a cm
same,CAPSULE/SEED RATIO,[3],8.488 a
same,CROP WEIGHT,[3],3.22 d t/ha
same,LODGING,[3],1.2 b %
same,MORPHINE,[3],60.39 a kg/ha
same,SEED,[3],267 c kg/ha
same,STRAW,[3],2955 a kg/ha
same,STRAW MORPHINE,[3],2.04 a %
same,HEIGHT,[3]; height at green capsule stage,99.2 a cm
same,CAPSULE/SEED RATIO,[4],6.352
same,CROP WEIGHT,[4],1.33 t/ha
same,MORPHINE,[4],21.65 kg/ha
same,SEED,[4],131 kg/ha
same,STRAW,[4],1203 kg/ha
same,STRAW MORPHINE %,[4],1.80%
same,PLANT HEIGHT,[4]; measured some 10 weeks after last application,72 cm
same,CAPSULE/SEED RATIO,[5],3.844 a
same,CROP WEIGHT,[5],2.67 b t/ha
same,MORPHINE,[5],43.94 a kg/ha
same,SEED,[5],468 b kg/ha
same,STRAW,[5],2206 a kg/ha
same,STRAW MORPHINE,[5],2.04 a %
same,LODGING,[5]; assessed on the day of capsule harvest,2.3 c %
same,HEIGHT,[5]; measured at green capsule stage,94.5 ab cm
same,CAPS/SEED RATIO,[6],1.740 a
same,CROP WEIGHT,[6],2.46 c t/ha
same,MORPHINE,[6],37.76 bc kg/ha
same,SEED,[6],698 d kg/ha
same,STRAW,[6],1749 bc kg/ha
same,STRAW MORPHINE,[6],2.15 ab %
same,PLANT HEIGHT,[6]; 5 weeks after last application,90.0 c cm
